From ChEMBL document CHEMBL4732127, “The discovery of a potent and selective pyrazolo-[2,3-e]-[1,2,4]-triazine cannabinoid type 2 receptor agonist” (Eur J Med Chem, 2021)
The source made the active and inactive calls. The calls are words filed in the database; no cut-off is given here.

Experiments:
Cannabinoid receptor 2 [1] = biological target: T1, Cannabinoid receptor 2 (Homo sapiens, UniProt P34972); assay: Agonist activity at human CB2 expressed in mouse AtT20 cells assessed as activation of G-protein gated inwardly rectifying K+ channels measured every 2 sec for 2 mins by FLIPR membrane potential assay; assay type: cell-based
T1 sequence (P34972 whole entry): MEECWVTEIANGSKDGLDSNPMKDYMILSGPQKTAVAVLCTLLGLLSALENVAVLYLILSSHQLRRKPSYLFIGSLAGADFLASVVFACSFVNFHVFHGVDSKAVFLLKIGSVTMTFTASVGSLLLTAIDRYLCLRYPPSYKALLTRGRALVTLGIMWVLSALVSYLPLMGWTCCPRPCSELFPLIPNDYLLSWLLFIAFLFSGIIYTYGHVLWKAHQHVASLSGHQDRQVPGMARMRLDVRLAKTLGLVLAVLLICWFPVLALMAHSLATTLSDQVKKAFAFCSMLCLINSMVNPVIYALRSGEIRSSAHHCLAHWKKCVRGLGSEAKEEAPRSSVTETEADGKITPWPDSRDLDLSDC

Cannabinoid receptor 2 [2] = biological target: T1, Cannabinoid receptor 2; assay: Agonist activity at human CB2 expressed in mouse AtT20 cells assessed as maximal activation of G-protein gated inwardly rectifying K+ channels measured every 2 sec for 2 mins by FLIPR membrane potential assay relative to control; assay type: cell-based; details: filed as agonist
Cannabinoid receptor 1 [3] = biological target: T2, Cannabinoid receptor 1 (Homo sapiens, UniProt P21554); assay: Agonist activity at human CB1 expressed in mouse AtT20 cells assessed as activation of G-protein gated inwardly rectifying K+ channels at 10 uM measured every 2 sec for 2 mins by FLIPR membrane potential assay; assay type: cell-based; details: att20, 2 min
T2 sequence (P21554 whole entry): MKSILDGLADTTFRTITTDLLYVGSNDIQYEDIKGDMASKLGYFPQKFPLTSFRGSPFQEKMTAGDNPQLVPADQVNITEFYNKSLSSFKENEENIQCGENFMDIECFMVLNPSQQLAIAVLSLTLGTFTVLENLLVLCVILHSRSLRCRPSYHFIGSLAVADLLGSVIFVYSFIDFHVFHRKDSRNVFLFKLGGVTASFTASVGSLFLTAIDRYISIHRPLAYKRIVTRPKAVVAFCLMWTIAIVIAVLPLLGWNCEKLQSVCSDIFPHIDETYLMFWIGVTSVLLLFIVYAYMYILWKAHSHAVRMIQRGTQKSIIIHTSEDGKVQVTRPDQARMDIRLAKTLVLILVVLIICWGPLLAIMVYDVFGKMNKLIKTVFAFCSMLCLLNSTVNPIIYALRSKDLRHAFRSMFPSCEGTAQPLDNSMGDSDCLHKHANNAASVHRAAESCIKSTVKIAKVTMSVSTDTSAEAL

Cannabinoid receptor 2 [4] = biological target: T1, Cannabinoid receptor 2; assay: Agonist activity at human CB2 expressed in mouse AtT20 cells assessed as activation of G-protein gated inwardly rectifying K+ channels at 10 uM measured every 2 sec for 2 mins by FLIPR membrane potential assay; assay type: cell-based
Cannabinoid receptor 2 [5] = biological target: T1, Cannabinoid receptor 2; assay: Agonist activity at human CB2 expressed in mouse AtT20 cells assessed as activation of G-protein gated inwardly rectifying K+ channels at 10 uM measured every 2 sec for 2 mins by FLIPR membrane potential assay relative to control; assay type: cell-based; details: filed as agonist
Cannabinoid receptor 1 [6] = biological target: T2, Cannabinoid receptor 1; assay: Displacement of [3H]-CP55940 from human CB1 expressed in CHO cell membrane incubated for 3 hrs by microbeta scintillation counting method; assay type: cell membranes
Cannabinoid receptor 2 [7] = biological target: T1, Cannabinoid receptor 2; assay: Displacement of [3H]-CP55940 from human CB2 expressed in CHO cell membrane incubated for 3 hrs by microbeta scintillation counting method; assay type: cell membranes
Cannabinoid receptor 1 [8] = biological target: T2, Cannabinoid receptor 1; assay: Agonist activity at CB1 (unknown origin)
Cannabinoid receptor 2 [9] = biological target: T1, Cannabinoid receptor 2; assay: Agonist activity at CB2 (unknown origin)

| SMILES | Activity (Cannabinoid receptor 1 [3]) [%] | pEC50 (Cannabinoid receptor 2 [1]) | Activity (Cannabinoid receptor 2 [4]) [%] | other results |
| --- | --- | --- | --- | --- |
| CC(C)(O)COc1ccc(C(F)(F)F)cc1-c1ccc2c(C(C)(C)C)nn(C[C@H]3CCCO3)c2c1 | < 50 | – | – | EC50 (Cannabinoid receptor 2 [1]; read-out: EC50): 673 nM; Emax (Cannabinoid receptor 2 [2]): 104% |
| CC(C)(O)COc1ccc(C(F)(F)F)cc1-c1cc(C(C)(C)C)nn1C[C@H]1CCCO1 | < 50 | inactive | < 50 | – |
| CC(C)(O)COc1ccc(C(F)(F)F)cc1/C=C/c1cc(C(C)(C)C)nn1C[C@H]1CCCO1 | < 50 | – | – | Activity (Cannabinoid receptor 2 [5]): 54% |
| CC(C)(O)COc1ccc(C(F)(F)F)cc1C#Cc1cc(C(C)(C)C)nn1C[C@H]1CCCO1 | < 50 | – | – | Activity (Cannabinoid receptor 2 [5]): 62% |
| CC(C)(O)COc1ccc(C(F)(F)F)cc1C(=O)Oc1cc(C(C)(C)C)nn1C[C@H]1CCCO1 | < 50 | – | – | EC50 (Cannabinoid receptor 2 [1]; read-out: EC50): 1280 nM; Emax (Cannabinoid receptor 2 [2]): 106% |
| CN(C(=O)c1cc(C(F)(F)F)ccc1OCC(C)(C)O)c1cc(C(C)(C)C)nn1C[C@H]1CCCO1 | < 50 | inactive | < 50 | – |
| CC(C)(O)COc1ccc(C(F)(F)F)cc1-c1ncc2c(C(C)(C)C)nn(C[C@H]3CCCO3)c2n1 | < 50 | – | – | EC50 (Cannabinoid receptor 2 [1]; read-out: EC50): 41 nM; Emax (Cannabinoid receptor 2 [2]): 106% |
| CC(C)(O)COc1ccc(C(F)(F)F)cc1C(=S)Nc1cc(C(C)(C)C)nn1C[C@H]1CCCO1 | < 50 | – | – | Activity (Cannabinoid receptor 2 [5]): 51% |
| CC(C)(O)COc1ccc(C(F)(F)F)cc1Nc1cc(C(C)(C)C)nn1C[C@H]1CCCO1 | < 50 | inactive | < 50 | – |
| CC(C)(O)COc1ccc(C(F)(F)F)cc1NC(=O)c1cc(C(C)(C)C)nn1C[C@H]1CCCO1 | < 50 | – | – | EC50 (Cannabinoid receptor 2 [1]; read-out: EC50): 6760 nM; EC50 (Cannabinoid receptor 2 [1]; read-out: pEC50 (converted)): 5250 nM; Emax (Cannabinoid receptor 2 [2]): 106% |
| CC(C)(O)COc1ccc(C(F)(F)F)cc1-c1nnc2c(C(C)(C)C)nn(C[C@H]3CCCO3)c2n1 | < 50 | – | – | EC50 (Cannabinoid receptor 2 [1]; read-out: EC50): 19 nM; Emax (Cannabinoid receptor 2 [2]): 115%; Ki (Cannabinoid receptor 1 [6]): > 10000 nM; Ki (Cannabinoid receptor 2 [7]): 17 nM |
| CC(C)(O)COc1ccc(C(F)(F)F)cc1-c1cn(-c2cc(C(C)(C)C)nn2C[C@H]2CCCO2)nn1 | < 50 | inactive | < 50 | – |
| CC(C)(O)COc1ccc(C(F)(F)F)cc1S(=O)(=O)Nc1cc(C(C)(C)C)nn1C[C@H]1CCCO1 | < 50 | inactive | < 50 | – |
| CC(C)(O)COc1ccc(C(F)(F)F)cc1NC(=O)Nc1cc(C(C)(C)C)nn1C[C@H]1CCCO1 | < 50 | – | – | Activity (Cannabinoid receptor 2 [5]): 54% |
| Cn1c(C(C)(C)C)c/c(=N\C(=O)c2cc(C(F)(F)F)ccc2OCC(C)(C)O)n1C[C@H]1CCCO1 | – | – | – | EC50 (Cannabinoid receptor 1 [8]): > 10000 nM; EC50 (Cannabinoid receptor 2 [9]): 19 nM; Ki (Cannabinoid receptor 1 [6]): > 10000 nM; Ki (Cannabinoid receptor 2 [7]): 5.9 nM |
| CC(C)(O)COc1ccc(C(F)(F)F)cc1CCc1cc(C(C)(C)C)nn1C[C@H]1CCCO1 | < 50 | inactive | < 50 | – |
| CC(C)(O)COc1ccc(C(F)(F)F)cc1CNc1cc(C(C)(C)C)nn1C[C@H]1CCCO1 | < 50 | inactive | < 50 | – |
| CC(C)(O)COc1ccc(C(F)(F)F)cc1C(=O)Nc1cc(C(C)(C)C)nn1C[C@H]1CCCO1 | – | – | – | Ki (Cannabinoid receptor 1 [6]): > 10000 nM; Ki (Cannabinoid receptor 2 [7]): > 10000 nM |
| CC(C)(O)COc1ccc(C(F)(F)F)cc1-c1ccc(-c2cc(C(C)(C)C)nn2C[C@H]2CCCO2)o1 | < 50 | inactive | < 50 | – |
